Results on 3 compounds are retold here after patent US20060210584A1, “Method for preparing citrinin-free Monascus biomass and use of citrinin-free Monascus biomass” (priority 2005, published 2006).

Series [1] deals with microsomal lipid peroxidation. Nature of the series: Inhibition of microsomal lipid peroxidation (MDA-TBA). It counts as biochemical. The note with it: rat liver microsomes, 10 μM FeSO4 and 0.1 mM ascorbic acid, 37° C. 60 min; aqueous extract. How it is done: (§1) A freeze-dried sample of Example 1 was weighed and made up to 100 mg/mL in distilled water. The solution was autoclaved at 121° C. for 15 min. The supernatant was harvested after centrifugation at 4° C. was stored at −20° C. A serial dilution was then made with the stock aqueous extract into a series of increasing concentrations of the extracts up to 100 mg/mL solution. For the assay of the scavenging of DPPH radicals, a methanolic extract (membrane-filtered; 0.45 μm membrane, Acrodisc 4CR, PTEE) (replacing the solvent water with methanol and procedure stated in the first sentence) was used instead.
Normal rats were sacrificed by cervical dislocation. The liver of the rats was rapidly homogenized in 0.25M of an ice-cold sucrose solution and the resultant solution was centrifuged at 12,000×g for 20 min at 4° C. The supernatant obtained was centrifuged at 15,000×g for 60 min at 4° C. […]
The microsomes (200-300 μg/mL) were incubated at 37° C. for 60 min with the extract sample of Monascus biomass at variable concentrations, 10 μM FeSO4 and 0.1 mM ascorbic acid in 1.0 mL of a phosphate buffered saline (PBS, 0.25M, pH7.4). […] After centrifugation of precipitated protein, the color reaction of MDA-TBA complex was detected at OD 532 nm. […]
where A was the absorbance (OD532) of the negative control, and A1 was that of the tested sample.

The nature of series [2]: Scavenging of superoxide radicals (PMS-NADH/NBT). It counts as biochemical. As to conditions: PMS-NADH system, NBT, OD 560 nm; aqueous extract. As to the method: as §1
Superoxide radicals were generated in a PMS-NADH [phenazin methosulfate (PMS)-β-nicotinamide adenine dinucleotide (reduced from, NADH)] system by oxidation of NADH and assayed by the reduction of nitroblue tetrazolium (NBT). The superoxide radicals were generated in 3 mL of Tris-HCl buffer (16 mM, pH8.0), which contained 78 μM NADH, 50 μM NBT, 10 μM PMS and Monascus extracts at different concentrations to be tested. The color reaction between superoxide radicals and NBT was detected at OD 560 nm. L-ascorbic acid was used as a positive control. The inhibition rate (%) was calculated using the following formula: Inhibition rate (%)=(A−A1)/A×100%
where A was the absorbance of a negative control (distilled water), and A1 was the absorbance of the tested sample.

A short description of series [3]: Reducing power (potassium ferricyanide). It counts as biochemical. The note with it: absorbance 700 nm. As to the method: as §1
2.5 mL of 1% potassium ferricyanide [K3Fe(CN)6] was added to 1.0 mL of an aqueous Monascus extract of variable concentrations (prepared as stated above). The resultant mixture was incubated at 50° C. for 20 min. 2.5 mL of trichloracetic acid (TCA, 10%) were added to the mixture. 2.5 mL of the resultant solution were mixed with 2.5 mL of distilled water and 0.5 mL of FeCl3 solution (0.1%). The absorbance was measured at 700 nm. Increased absorbance of the reaction mixture indicated an increase of reducing power. Vitamin C was used as a positive control in this experiment.

Series [4] in a line: Scavenging of DPPH radicals. It counts as biochemical. As to conditions: methanolic extract; absorbance 515 nm, 30 s. How it is done: as §1
1.8 mL of a methanolic solution of DPPH (6×10^−5M 2,2-diphenyl-1-picrylhydrazyl) was added to 0.2 mL of a methanolic Monascus extract of variable concentrations (prepared as described above). The absorbance of the reaction mixture was measured at 515 nm exactly 30s after the DPPH solution was added. Vitamin E and methanol were used as positive and negative controls, respectively.
The inhibition rate (%) was calculated using the following formula: Inhibition rate (%)=(A−A1)/A×100%
where A was the absorbance of the negative control, and A1 was that of the tested sample.

In series [5] the test system is mouse. As to conditions: cited from earlier work.

For the compound `O=C1O[C@H]([C@@H](O)CO)C(O)=C1O` [Vitamin C, L-ascorbic acid], the “effective concentration giving 50% inhibition of microsomal lipid peroxidation” value in series [1] is given as 0.1 mg/mL. Also, in series [2], the “effective concentration giving 50% inhibition, scavenging of superoxide radicals” value was determined as 1.5 mg/mL. In addition, the “reducing power, concentration range of action” value in series [3] is listed as “less than 1 mg/mL”.

Consider Vitamin E, for which the “effective concentration to give 50% inhibition, scavenging of DPPH radicals” value in series [4] came to 1 mg/mL.

As to `CC1=C2C(=CO[C@H](C)[C@H]2C)C(O)=C(C(=O)O)C1=O` [citrinin], the “LD50 (lethal dose causing decrease of 50% population)” value in series [5] is on record as 35 mg/kg.
